Data published in patent US20170296570A1, “High Drug Load Tablets Comprising Sofosbuvir” (Sandoz AG, priority 2014, published 2017).

How the values were obtained:
[1] = Determination of the moisture stability of polymorphic forms of sofosbuvir and amorphous sofosbuvir (humidity chamber, XRPD before and after); type: physicochemical; details: for XRPD analysis, sample after storage at 40° C./75% RH for 18 h / Visual aspect, sample after storage at 40° C./75% RH for 18 h: after 18 h at 40° C./75% RH in humidity chamber; for Visual aspect, sample after storage at 40° C./75% RH for 18 h: footnote: gel/gum = sample deliquesced; for Visual aspect, sample before storage at 40° C./75% RH / XRPD analysis, sample before storage at 40° C./75% RH: 30 mg sample
Procedure: Even more precisely, the moisture stability of the polymorphic form is defined as the amount in mg of the polymorphic form which is present after an exposure of an amount of 30 mg of the polymorphic form to a relative humidity of (75±1) % at a temperature of (40±1)° C. for an exposure time of (18±1) hours in a humidity chamber, relative to the amount of 30 mg of the polymorphic form before said exposure, as determined via X-ray powder diffraction pattern analysis at a temperature in the range of from 15 to 25° C. with Cu-Kalpha1,2 radiation having a wavelength of 0.15419 nm of the polymorphic form before the exposure and via said X-ray powder diffraction pattern analysis after the exposure.
30 mg of a given polymorphic form of sofosbuvir or of amorphous sofosbuvir prepared according to Reference Examples 1 to 4 were analyzed via XRPD as described in Reference Example 6. Then, these polymorphic forms of sofosbuvir or of amorphous sofosbuvir were exposed to an atmosphere having a relative humidity (RH) of 75% and a temperature of 40° C. for 18 hours in a humidity chamber and analyzed via XRPD as described in Reference Example 6.
XRPD patterns were obtained with an X'Pert PRO diffractometer (PANalytical, Almelo, The Netherlands) equipped with a theta/theta coupled goniometer in transmission geometry, pro-grammable XYZ stage with well plate holder, Cu-Kalpha1,2 radiation source (wavelength 0.15419 nm) with a focusing mirror, a 0.5° divergence slit, a 0.02° soller slit collimator and a 0.5° anti-scattering slit on the incident beam side, a 2 mm anti-scattering slit, a 0.02° soller slit collimator, a Ni-filter and a solid state PIXcel detector on the diffracted beam side. The diffractogram was recorded at room temperature at a tube voltage of 40 kV, tube current of 40 mA, applying a stepsize of 0.013° 2-theta with 40 sec per step in the angular range of 2° to 40° 2-theta. A typical precision of the 2-theta values is in the range of ±0.2° 2-theta. Thus, a diffraction peak that appears for example at 9.4° 2-theta can appear between 9.2 and 9.6° 2-theta on most X-ray diffractometers under standard conditions.

[2] = 40° C., relative humidity 75%; cited from earlier work

CC(C)OC(=O)[C@H](C)N[P@](=O)(OC[C@H]1O[C@@H](n2ccc(=O)[nH]c2=O)[C@](C)(F)[C@@H]1O)Oc1ccccc1 [Amorphous]
XRPD analysis, sample after storage at 40° C./75% RH for 18 h [1]: amorphous | Visual aspect, sample after storage at 40° C./75% RH for 18 h [1]: gel/gum*^) | Visual aspect, sample before storage at 40° C./75% RH [1]: white powder | XRPD analysis, sample before storage at 40° C./75% RH [1]: amorphous

CC(C)OC(=O)[C@H](C)N[P@](=O)(OC[C@H]1O[C@@H](n2ccc(=O)[nH]c2=O)[C@](C)(F)[C@@H]1O)Oc1ccccc1 [Form 1]
XRPD analysis, sample after storage at 40° C./75% RH for 18 h [1]: amorphous | Visual aspect, sample after storage at 40° C./75% RH for 18 h [1]: gel/gum*^) | Visual aspect, sample before storage at 40° C./75% RH [1]: white powder | XRPD analysis, sample before storage at 40° C./75% RH [1]: crystalline, Form 1

CC(C)OC(=O)[C@H](C)N[P@](=O)(OC[C@H]1O[C@@H](n2ccc(=O)[nH]c2=O)[C@](C)(F)[C@@H]1O)Oc1ccccc1 [Form 6]
XRPD analysis, sample after storage at 40° C./75% RH for 18 h [1]: crystalline, Form 6 | Visual aspect, sample after storage at 40° C./75% RH for 18 h [1]: white powder | Visual aspect, sample before storage at 40° C./75% RH [1]: white powder | XRPD analysis, sample before storage at 40° C./75% RH [1]: crystalline, Form 6

CC(C)OC(=O)[C@H](C)N[P@](=O)(OC[C@H]1O[C@@H](n2ccc(=O)[nH]c2=O)[C@](C)(F)[C@@H]1O)Oc1ccccc1 [Form 7]
XRPD analysis, sample after storage at 40° C./75% RH for 18 h [1]: crystalline, Form 7 | Visual aspect, sample after storage at 40° C./75% RH for 18 h [1]: white powder | Visual aspect, sample before storage at 40° C./75% RH [1]: white powder | XRPD analysis, sample before storage at 40° C./75% RH [1]: crystalline, Form 7

CC(C)OC(=O)[C@H](C)N[P@](=O)(OC[C@H]1O[C@@H](n2ccc(=O)[nH]c2=O)[C@](C)(F)[C@@H]1O)Oc1ccccc1 [sofosbuvir, (S)-isopropyl 2-(((S)-(((2R,3R,4R,5R)-5-(2,4-dioxo-3,4-dihydropyrimidin-1(2H)-yl)-4-fluoro-3-hydroxy-4-methyltetrahydrofuran-2-yl)methoxy)(phenoxy)phosphoryl)-amino)propanoate]
behaviour under stress conditions (deliquescence) [2]: deliquesces after a few hours
